Test results taken from the NIST ThermoML archive (doi:10.1016/j.jct.2017.08.004).

Assay: molar heat capacity at constant pressure
Settings: 101.33 kPa, Crystal

OC[C@@H](O)[C@H](O)[C@@H](O)CO [xylitol]
molar heat capacity at constant pressure [J/K/mol]
Settings | Small sample (50 mg) DSC | relaxation calorimetry
261.15 K | 182.91 | –
262.13 K | – | 182.23
262.15 K | 183.56 | –
263.15 K | 184.15 | –
264.15 K | 184.93 | –
265.15 K | 185.58 | –
266.15 K | 186.01 | –
267.15 K | 186.68 | –
268.15 K | 187.58 | –
269.15 K | 188.3 | –
270 K | – | 187.42
270.15 K | 188.75 | –
271.15 K | 189.44 | –
272.13 K | – | 189.16
272.15 K | 190.09 | –
273.15 K | 190.92 | 189.56
274.15 K | 191.54 | –
275.15 K | 192.36 | –
276.15 K | 193.1 | –
277.15 K | 193.74 | –
278.15 K | 194.49 | –
279.15 K | 195.25 | –
280 K | – | 194.26
280.15 K | 195.98 | –
281.15 K | 196.83 | –
282.15 K | 197.52 | –
282.21 K | – | 195.78
283.15 K | 198.24 | –
284.15 K | 198.78 | –
285.15 K | 199.46 | –
286.15 K | 200.2 | –
287.15 K | 200.97 | –
288.15 K | 201.79 | –
289.15 K | 202.38 | –
290 K | – | 201.22
290.15 K | 203.24 | –
291.15 K | 204 | –
292.15 K | 204.53 | –
292.34 K | – | 202.53
293.15 K | 205.39 | –
294.15 K | 206.39 | –
295.15 K | 207.02 | –
296.15 K | 207.76 | –
297.15 K | 208.58 | –
298.15 K | 209.23 | 207
299.15 K | 209.95 | –
300 K | – | 208.32
300.15 K | 210.89 | –
301.15 K | 211.84 | –
302.15 K | 212.55 | –
302.38 K | – | 210.13
303.15 K | 213.48 | –
304.15 K | 214.26 | –
305 K | 215.28 | –
305.15 K | 215.11 | –
306.15 K | 216.14 | –
307.15 K | 217.06 | –
308.15 K | 217.82 | –
309.15 K | 218.75 | –
310 K | 219.82 | –
310.15 K | 219.97 | –
311.15 K | 220.76 | –
312.15 K | 221.67 | –
313.15 K | 222.64 | –
314.15 K | 223.41 | –
315 K | 224.06 | –
315.15 K | 224.2 | –
316.15 K | 225.05 | –
317.15 K | 225.99 | –
318.15 K | 226.72 | –
319.15 K | 227.57 | –
320 K | 228.13 | –
320.15 K | 228.44 | –
321.15 K | 229.1 | –
322.15 K | 229.81 | –
323.15 K | 230.76 | –
324.15 K | 231.54 | –
325 K | 232.15 | –
325.15 K | 232.32 | –
326.15 K | 233.13 | –
327.15 K | 234.07 | –
328.15 K | 234.91 | –
329.15 K | 235.68 | –
